Measured values reported in patent US4876242A, “Human insulin-like growth factor analoges with reduced binding to serum carrier proteins and their production in yeast” (Merck & Co., Inc., priority 1987, dated 1989).
“Also recorded” adds a separate entry of the source.

Legend:
type I IGF receptor = assay: Inhibition of 125I-hIGF-I binding to human placental membranes (type I IGF receptor binding); settings: FIG. 6; for IC50: human placental membranes, type I IGF receptor
[1] = system: human serum carrier proteins; assay: Inhibition of 125I-hIGF-I binding to acid stable human serum carrier proteins; settings: FIG. 7; for IC50: acid stable human carrier proteins
[2] = system: native binding protein in rat serum; assay: Binding of 125I-labelled peptide to components in normal rat serum (gel chromatography); settings: for binding to rat serum carrier proteins / native binding protein in rat serum (in words): normal rat serum, FIG. 8
Experimental: ^125 I-labelled analog IGF132 was monitored for the ability to bind components in normal rat serum. When ^125 I-IGF or ^125 I-IGF132 is chromatographed without prior incubation with serum, the radioactivity is eluted in a broad peak which migrates at the position expected for a 7.5 kD peptide (FIG. 8A). After incubation of ^125 I-IGF with rat serum, a radioactive peak appears which elutes at the position expected for a 150 kD protein, and the amount of radioactivity in the free ^125 I-αIGF peak decreases (FIG. 8B). The ^125 I-αIGF bound to the 150 kD species represents 36%±5% of the total ^125 I-IGF-I in the incubation. When the incubation is performed in the presence of 1 μg unlabelled IGF, only one radioactive peak is observed and this corresponds to unbound ^125 I-IGF (FIG. 8B (0)). Thus, under the conditions of this assay, the binding of ^125 I-IGF to the 150 kD species from rat serum is saturable.

3T3 cells = assay: Stimulation of DNA synthesis in 3T3 cells; format: cell-based, mouse; settings: FIG. 9; for potency in stimulating DNA synthesis relative to normal/wild-type IGF-I: 3T3 cells; for potency in stimulating DNA synthesis relative to wild type IGF-I: mouse 3T3 cells
Description: IGF-I stimulates DNA synthesis in mouse 3T3 cells.

serum carrier proteins = settings: cited from earlier work
rat adipose tissue = assay: Incorporation of 14C-glucose into lipid in rat adipose tissue in vivo; settings: FIG. 10 part B

## FVNQHLCGSHLVEALYL-R1 [IGF132]
Type I IGF receptor
  affinity/potency at the type I IGF receptor compared to normal human IGF-I (in words): near equal affinity
  IC50: 12 nM
[1]
  binding to human serum carrier proteins (in words): greatly reduced binding; also recorded: very weakly bound
  IC50: > 1000 nM
[2]
  binding to rat serum carrier proteins / native binding protein in rat serum (in words): greatly reduced binding; also recorded: is not observed; also recorded: only free radioactive peptide is eluted
3T3 cells
  potency in stimulating DNA synthesis relative to normal/wild-type IGF-I: 10 times
  potency in stimulating DNA synthesis relative to wild type IGF-I: about 10 fold

## GPETLCGAELVDALQF-R1 [hIGF-I, reference compound]
Type I IGF receptor
  IC50: 5.6 nM
[1]
  binding to human serum carrier proteins (in words): tightly bound
  IC50: 0.42 nM
Serum carrier proteins; normal human blood
  share bound to serum carrier proteins in normal human blood: greater than 99%
[2]; after incubation with rat serum, FIG. 8B
  125I-peptide bound to the 150 kD species, share of the total in the incubation: 36%±5%
[2]
  binding to rat serum carrier proteins / native binding protein in rat serum (in words): binds in a saturable fashion
[2]; listed as IGF
  binding to rat serum carrier proteins / native binding protein in rat serum (in words): saturable
Rat adipose tissue
  stimulation of lipid synthesis in adipose tissue in vivo (in words): Neither IGF-I nor IGF252 stimulate lipid synthesis; also recorded: neither IGF-I nor IGF252 stimulates the incorporation

## GPETLCGAELVDALYL-R1 [IGF122]
Type I IGF receptor
  IC50: 4.5 nM
[1]
  IC50: 2.1 nM

## GPQALCGAELVDALQF-R1 [IGF130]
Type I IGF receptor
  IC50: 5.3 nM
[1]
  IC50: 1.8 nM

## GPQALCGAELVDALYL-R1 [IGF252]
Type I IGF receptor
  IC50: 5 nM
[1]
  binding to human serum carrier proteins (in words): very weakly bound
  IC50: 300 nM
Rat adipose tissue
  stimulation of lipid synthesis in adipose tissue in vivo (in words): Neither IGF-I nor IGF252 stimulate lipid synthesis; also recorded: neither IGF-I nor IGF252 stimulates the incorporation
3T3 cells
  potency in stimulating DNA synthesis relative to normal/wild-type IGF-I: 10 times
  potency in stimulating DNA synthesis relative to wild type IGF-I: about 10 fold

## insulin: insulin; stated not to bind to serum carrier proteins
Serum carrier proteins
  binding to serum carrier proteins (in words, background observation): does not bind to serum carrier proteins
